From patent US20260234157A1, “COMPOUND AND METHOD FOR TARGETED DEGRADATION OF ANDROGEN RECEPTOR” (Gan & Lee Pharmaceuticals Co., Ltd., priority 2023, published 2026)
Substitutions are numbered along the chain they refer to.

Biological target: T1, AR protein (Homo sapiens, UniProt P10275, T878A)
T1 construct: degradation activity of the compounds disclosed in the present disclosure on AR protein in LNCaP cells; host or cells: LNCaP FGC
T1 sequence (P10275 1-920 T878A): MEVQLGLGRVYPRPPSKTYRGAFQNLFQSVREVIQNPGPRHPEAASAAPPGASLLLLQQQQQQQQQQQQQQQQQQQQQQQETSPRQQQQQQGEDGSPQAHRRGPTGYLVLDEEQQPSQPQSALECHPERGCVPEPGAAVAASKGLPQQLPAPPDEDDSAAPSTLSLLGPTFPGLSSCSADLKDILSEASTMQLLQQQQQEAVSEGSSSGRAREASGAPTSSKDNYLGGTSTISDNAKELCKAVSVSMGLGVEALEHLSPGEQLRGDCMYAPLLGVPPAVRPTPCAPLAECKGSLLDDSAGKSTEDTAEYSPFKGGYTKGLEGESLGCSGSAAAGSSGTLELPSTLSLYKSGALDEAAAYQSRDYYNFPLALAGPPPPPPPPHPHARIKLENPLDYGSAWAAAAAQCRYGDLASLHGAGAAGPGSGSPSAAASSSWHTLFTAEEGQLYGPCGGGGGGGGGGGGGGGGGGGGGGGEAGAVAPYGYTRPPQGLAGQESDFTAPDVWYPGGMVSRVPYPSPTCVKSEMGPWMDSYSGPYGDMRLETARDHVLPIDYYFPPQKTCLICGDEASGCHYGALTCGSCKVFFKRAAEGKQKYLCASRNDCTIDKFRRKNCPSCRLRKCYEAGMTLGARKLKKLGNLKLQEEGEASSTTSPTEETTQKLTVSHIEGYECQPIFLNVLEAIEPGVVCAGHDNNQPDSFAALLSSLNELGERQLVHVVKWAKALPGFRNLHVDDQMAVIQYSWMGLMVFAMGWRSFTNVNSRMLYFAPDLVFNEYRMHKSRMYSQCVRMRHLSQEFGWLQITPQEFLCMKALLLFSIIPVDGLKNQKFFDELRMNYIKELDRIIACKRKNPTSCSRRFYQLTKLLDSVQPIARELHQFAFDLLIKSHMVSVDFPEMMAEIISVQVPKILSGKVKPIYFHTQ
Test: Degradation of AR protein in LNCaP cells (Western blot)
Format: cell-based
Settings: LNCaP cells, compound 10 nM, 8 hours, Western blot grayscale, GAPDH internal reference; read-out: Degradation rates of the AR protein in LNCaP cells, 10 nM (%)
Method in brief: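 Percent AR degradation was derived from GAPDH-normalised Western blot band intensities (infrared detection) in LNCaP lysates.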

Structure (SMILES)	inhibition at 0.01 µM [%]
COc1cc(O[C@H]2C(C)(C)[C@H](NC(=O)c3ccc(N4CCC(C#N)(CN5CCC6(CC5)COc5c6ccc6c5CN(C5CCC(=O)NC5=O)C6=O)CC4)cc3)C2(C)C)ccc1C#N (stereo partly drawn) [Compound 208]	34
COc1cc(O[C@H]2CC[C@H](NC(=O)c3ccc(N4CCC(F)(CN5CC6(CCc7cc8c(cc7O6)CN(C6CCC(=O)NC6=O)C8=O)C5)CC4)nn3)CC2)ccc1C#N (stereo partly drawn) [Compound 209]	49
CC1(C)[C@H](NC(=O)c2ccc(N3CCC(CN4CCC5(CC4)COc4c5ccc5c4CN(C4CCC(=O)NC4=O)C5=O)CC3)nn2)C(C)(C)[C@H]1Oc1ccc(C#N)c(Cl)c1 (stereo partly drawn) [Compound 210]	61
N#Cc1ccc(O[C@H]2CC[C@H](NC(=O)c3ccc(N4CCC(CC5CC5)(CN5CCC6(CC5)COc5c6ccc6c5CN(C5CCC(=O)NC5=O)C6=O)CC4)nn3)CC2)cc1Cl (stereo partly drawn) [Compound 211]	45
C[C@H]1CN(c2ccc(C(=O)N[C@H]3CC[C@H](Oc4ccc(C#N)c(Cl)c4)CC3)nn2)C[C@@H]1CN1CCC2(CC1)COc1c2ccc2c1CN(C1CCC(=O)NC1=O)C2=O (stereo partly drawn) [Compound 212]	79
N#Cc1ccc(O[C@H]2CC[C@H](NC(=O)c3ccc(N4CCC(O)(CN5CCC6(CC5)COc5c6ccc6c5C(=O)N(C5CCC(=O)NC5=O)C6=O)CC4)nn3)CC2)cc1Cl (stereo partly drawn) [Compound 213]	47

Same assay, conditions: LNCaP cells, compound 100 nM, 8 hours, Western blot grayscale, GAPDH internal reference; read-out: Degradation rates of the AR protein in LNCaP cells, 100 nM (%)

Structure (SMILES)	inhibition at 0.1 µM [%]
COc1cc(O[C@H]2C(C)(C)[C@H](NC(=O)c3ccc(N4CCC(C#N)(CN5CCC6(CC5)COc5c6ccc6c5CN(C5CCC(=O)NC5=O)C6=O)CC4)cc3)C2(C)C)ccc1C#N (stereo partly drawn) [Compound 208]	38
COc1cc(O[C@H]2CC[C@H](NC(=O)c3ccc(N4CCC(F)(CN5CC6(CCc7cc8c(cc7O6)CN(C6CCC(=O)NC6=O)C8=O)C5)CC4)nn3)CC2)ccc1C#N (stereo partly drawn) [Compound 209]	25
CC1(C)[C@H](NC(=O)c2ccc(N3CCC(CN4CCC5(CC4)COc4c5ccc5c4CN(C4CCC(=O)NC4=O)C5=O)CC3)nn2)C(C)(C)[C@H]1Oc1ccc(C#N)c(Cl)c1 (stereo partly drawn) [Compound 210]	59
N#Cc1ccc(O[C@H]2CC[C@H](NC(=O)c3ccc(N4CCC(CC5CC5)(CN5CCC6(CC5)COc5c6ccc6c5CN(C5CCC(=O)NC5=O)C6=O)CC4)nn3)CC2)cc1Cl (stereo partly drawn) [Compound 211]	28
C[C@H]1CN(c2ccc(C(=O)N[C@H]3CC[C@H](Oc4ccc(C#N)c(Cl)c4)CC3)nn2)C[C@@H]1CN1CCC2(CC1)COc1c2ccc2c1CN(C1CCC(=O)NC1=O)C2=O (stereo partly drawn) [Compound 212]	70
N#Cc1ccc(O[C@H]2CC[C@H](NC(=O)c3ccc(N4CCC(O)(CN5CCC6(CC5)COc5c6ccc6c5C(=O)N(C5CCC(=O)NC5=O)C6=O)CC4)nn3)CC2)cc1Cl (stereo partly drawn) [Compound 213]	67

Biological target: T2, AR protein (Homo sapiens, UniProt P10275)
T2 construct: degradation activity of the compounds disclosed in the present disclosure on AR protein in VCaP cells; host or cells: VCaP
T2 sequence (P10275 1-920): T1 sequence (P10275 1-920 T878A) with A878T
Test: Degradation of AR protein in VCaP cells (Western blot)
Format: cell-based
Settings: compound at 10 nM, 8 hours, read-out: Degradation rate of the AR protein in VCaP cells, 10 nM (%)
Method in brief: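 Western blot readout: AR band grayscale normalised to GAPDH, used to derive degradation rate. Lysates came from VCaP cells exposed to compound for 8 h, with solvent controls run in parallel.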

Structure (SMILES)	inhibition at 0.01 µM [%]
COc1cc(O[C@H]2C(C)(C)[C@H](NC(=O)c3ccc(N4CCC(C#N)(CN5CCC6(CC5)COc5c6ccc6c5CN(C5CCC(=O)NC5=O)C6=O)CC4)cc3)C2(C)C)ccc1C#N (stereo partly drawn) [Compound 208]	17
COc1cc(O[C@H]2CC[C@H](NC(=O)c3ccc(N4CCC(F)(CN5CC6(CCc7cc8c(cc7O6)CN(C6CCC(=O)NC6=O)C8=O)C5)CC4)nn3)CC2)ccc1C#N (stereo partly drawn) [Compound 209]	39
CC1(C)[C@H](NC(=O)c2ccc(N3CCC(CN4CCC5(CC4)COc4c5ccc5c4CN(C4CCC(=O)NC4=O)C5=O)CC3)nn2)C(C)(C)[C@H]1Oc1ccc(C#N)c(Cl)c1 (stereo partly drawn) [Compound 210]	28
N#Cc1ccc(O[C@H]2CC[C@H](NC(=O)c3ccc(N4CCC(CC5CC5)(CN5CCC6(CC5)COc5c6ccc6c5CN(C5CCC(=O)NC5=O)C6=O)CC4)nn3)CC2)cc1Cl (stereo partly drawn) [Compound 211]	-4
C[C@H]1CN(c2ccc(C(=O)N[C@H]3CC[C@H](Oc4ccc(C#N)c(Cl)c4)CC3)nn2)C[C@@H]1CN1CCC2(CC1)COc1c2ccc2c1CN(C1CCC(=O)NC1=O)C2=O (stereo partly drawn) [Compound 212]	60
N#Cc1ccc(O[C@H]2CC[C@H](NC(=O)c3ccc(N4CCC(O)(CN5CCC6(CC5)COc5c6ccc6c5C(=O)N(C5CCC(=O)NC5=O)C6=O)CC4)nn3)CC2)cc1Cl (stereo partly drawn) [Compound 213]	32

Same assay, conditions: compound at 100 nM, 8 hours, read-out: Degradation rate of the AR protein in VCaP cells, 100 nM (%)

Structure (SMILES)	inhibition at 0.1 µM [%]
COc1cc(O[C@H]2C(C)(C)[C@H](NC(=O)c3ccc(N4CCC(C#N)(CN5CCC6(CC5)COc5c6ccc6c5CN(C5CCC(=O)NC5=O)C6=O)CC4)cc3)C2(C)C)ccc1C#N (stereo partly drawn) [Compound 208]	67
COc1cc(O[C@H]2CC[C@H](NC(=O)c3ccc(N4CCC(F)(CN5CC6(CCc7cc8c(cc7O6)CN(C6CCC(=O)NC6=O)C8=O)C5)CC4)nn3)CC2)ccc1C#N (stereo partly drawn) [Compound 209]	67
CC1(C)[C@H](NC(=O)c2ccc(N3CCC(CN4CCC5(CC4)COc4c5ccc5c4CN(C4CCC(=O)NC4=O)C5=O)CC3)nn2)C(C)(C)[C@H]1Oc1ccc(C#N)c(Cl)c1 (stereo partly drawn) [Compound 210]	71
N#Cc1ccc(O[C@H]2CC[C@H](NC(=O)c3ccc(N4CCC(CC5CC5)(CN5CCC6(CC5)COc5c6ccc6c5CN(C5CCC(=O)NC5=O)C6=O)CC4)nn3)CC2)cc1Cl (stereo partly drawn) [Compound 211]	46
C[C@H]1CN(c2ccc(C(=O)N[C@H]3CC[C@H](Oc4ccc(C#N)c(Cl)c4)CC3)nn2)C[C@@H]1CN1CCC2(CC1)COc1c2ccc2c1CN(C1CCC(=O)NC1=O)C2=O (stereo partly drawn) [Compound 212]	82
N#Cc1ccc(O[C@H]2CC[C@H](NC(=O)c3ccc(N4CCC(O)(CN5CCC6(CC5)COc5c6ccc6c5C(=O)N(C5CCC(=O)NC5=O)C6=O)CC4)nn3)CC2)cc1Cl (stereo partly drawn) [Compound 213]	75

Tested on: LNCaP FGC cells
Test: Inhibition of proliferation of LNCaP cells (WST-8)
Format: cell-based
Settings: Homo sapiens, LNCaP, 96 h, LNCaP FGC cells, 96 hours, WST-8 absorbance at 450 nm; read-out: IC50 for inhibiting the proliferation of LNCaP cells
Protocol: The cells were cultured in a cell culture incubator with 5% CO2 at 37° C. overnight. […] On the sixth day, 96 well plates were taken out, and 20 μL of WST-8 (Beytime, C0040) reagent was added to each well.

Structure (SMILES)	IC50 [nM]
COc1cc(O[C@H]2C(C)(C)[C@H](NC(=O)c3ccc(N4CCC(C#N)(CN5CCC6(CC5)COc5c6ccc6c5CN(C5CCC(=O)NC5=O)C6=O)CC4)cc3)C2(C)C)ccc1C#N (stereo partly drawn) [Compound 208]	10
COc1cc(O[C@H]2CC[C@H](NC(=O)c3ccc(N4CCC(F)(CN5CC6(CCc7cc8c(cc7O6)CN(C6CCC(=O)NC6=O)C8=O)C5)CC4)nn3)CC2)ccc1C#N (stereo partly drawn) [Compound 209]	1760
CC1(C)[C@H](NC(=O)c2ccc(N3CCC(CN4CCC5(CC4)COc4c5ccc5c4CN(C4CCC(=O)NC4=O)C5=O)CC3)nn2)C(C)(C)[C@H]1Oc1ccc(C#N)c(Cl)c1 (stereo partly drawn) [Compound 210]	8
C[C@H]1CN(c2ccc(C(=O)N[C@H]3CC[C@H](Oc4ccc(C#N)c(Cl)c4)CC3)nn2)C[C@@H]1CN1CCC2(CC1)COc1c2ccc2c1CN(C1CCC(=O)NC1=O)C2=O (stereo partly drawn) [Compound 212]	320
N#Cc1ccc(O[C@H]2CC[C@H](NC(=O)c3ccc(N4CCC(O)(CN5CCC6(CC5)COc5c6ccc6c5C(=O)N(C5CCC(=O)NC5=O)C6=O)CC4)nn3)CC2)cc1Cl (stereo partly drawn) [Compound 213]	1320

Same assay, conditions: Homo sapiens, LNCaP, 96 h, read-out: IC50 for inhibiting the proliferation of LNCaP cells

Structure (SMILES)	IC50 [nM]
N#Cc1ccc(O[C@H]2CC[C@H](NC(=O)c3ccc(N4CCC(CC5CC5)(CN5CCC6(CC5)COc5c6ccc6c5CN(C5CCC(=O)NC5=O)C6=O)CC4)nn3)CC2)cc1Cl (stereo partly drawn) [Compound 211]	55

Tested on: VCaP cells
Test: Inhibition of proliferation of VCaP cells (WST-8)
Format: cell-based
Settings: Homo sapiens, VCaP, 168 h, read-out: IC50 for inhibiting the proliferation of VCaP cells
Method in brief: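 Proliferation was read by WST-8 on day nine. Cells were VCaP FGC, seeded at 15000 cells per well in 10% FBS DMEM and kept at 37° C with 5% CO2.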

Structure (SMILES)	IC50 [nM]
N#Cc1ccc(O[C@H]2CC[C@H](NC(=O)c3ccc(N4CCC(CC5CC5)(CN5CCC6(CC5)COc5c6ccc6c5CN(C5CCC(=O)NC5=O)C6=O)CC4)nn3)CC2)cc1Cl (stereo partly drawn) [Compound 211]	2.5

Same assay, conditions: Homo sapiens; VCaP cells, 168 hours, WST-8 absorbance at 450 nm; read-out: IC50 for inhibiting the proliferation of VCaP cells

Structure (SMILES)	IC50 [nM]
COc1cc(O[C@H]2C(C)(C)[C@H](NC(=O)c3ccc(N4CCC(C#N)(CN5CCC6(CC5)COc5c6ccc6c5CN(C5CCC(=O)NC5=O)C6=O)CC4)cc3)C2(C)C)ccc1C#N (stereo partly drawn) [Compound 208]	3.5
COc1cc(O[C@H]2CC[C@H](NC(=O)c3ccc(N4CCC(F)(CN5CC6(CCc7cc8c(cc7O6)CN(C6CCC(=O)NC6=O)C8=O)C5)CC4)nn3)CC2)ccc1C#N (stereo partly drawn) [Compound 209]	2
CC1(C)[C@H](NC(=O)c2ccc(N3CCC(CN4CCC5(CC4)COc4c5ccc5c4CN(C4CCC(=O)NC4=O)C5=O)CC3)nn2)C(C)(C)[C@H]1Oc1ccc(C#N)c(Cl)c1 (stereo partly drawn) [Compound 210]	2
C[C@H]1CN(c2ccc(C(=O)N[C@H]3CC[C@H](Oc4ccc(C#N)c(Cl)c4)CC3)nn2)C[C@@H]1CN1CCC2(CC1)COc1c2ccc2c1CN(C1CCC(=O)NC1=O)C2=O (stereo partly drawn) [Compound 212]	1
N#Cc1ccc(O[C@H]2CC[C@H](NC(=O)c3ccc(N4CCC(O)(CN5CCC6(CC5)COc5c6ccc6c5C(=O)N(C5CCC(=O)NC5=O)C6=O)CC4)nn3)CC2)cc1Cl (stereo partly drawn) [Compound 213]	19
